Measurements published in ChEMBL document CHEMBL1201862, “PubChem BioAssay data set” (2004).
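Protocol summary: plate cells (96-well), add compound at 5 concentrations, incubate 48 h, interpolate endpoints linearly. GI50 is the concentration that inhibits growth by half.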 The source made the active and inactive calls. Rule as the data show it: active = GI50 up to about 1.1 µM and inactive = higher.

Experiments:
Experiment in all cases: NCI anticancer screen, dose series, 48 h
IGROV-1 = tested on: IGROV-1
HOP-62 = tested on: HOP-62
SN12C = tested on: SN12C
LOX IMVI = tested on: LOX IMVI
RXF 393 = tested on: RXF 393
BT-549 = tested on: BT-549
COLO 205 = tested on: COLO 205
CAKI-1 = tested on: CAKI-1
UACC-257 = tested on: UACC-257
T47D = tested on: T47D
OVCAR-5 = tested on: OVCAR-5
KM12 = tested on: KM12
U-251 = tested on: U-251
Hs-578T = tested on: Hs-578T
MOLT-4 = tested on: MOLT-4
A549 = tested on: A549
OVCAR-3 = tested on: OVCAR-3
DU-145 = tested on: DU-145
HCT-15 = tested on: HCT-15
NCI/ADR-RES = tested on: NCI/ADR-RES
HCT-116 = tested on: HCT-116
SK-OV-3 = tested on: SK-OV-3
SK-MEL-28 = tested on: SK-MEL-28
HOP-92 = tested on: HOP-92
SK-MEL-2 = tested on: SK-MEL-2
SF-268 = tested on: SF-268
EKVX = tested on: EKVX
SR = tested on: SR
OVCAR-4 = tested on: OVCAR-4
M14 = tested on: M14
NCI-H522 = tested on: NCI-H522
A498 = tested on: A498
NCI-H226 = tested on: NCI-H226
OVCAR-8 = tested on: OVCAR-8
RPMI-8226 = tested on: RPMI-8226
UO-31 = tested on: UO-31
ACHN = tested on: ACHN
HL-60 = tested on: HL-60
K562 = tested on: K562
PC-3 = tested on: PC-3
UACC-62 = tested on: UACC-62
NCI-H23 = tested on: NCI-H23
MDA-MB-435 = tested on: MDA-MB-435
Malme-3M = tested on: Malme-3M
SW-620 = tested on: SW-620
HT-29 = tested on: HT-29
SK-MEL-5 = tested on: SK-MEL-5
786-0 = tested on: 786-0
SNB-19 = tested on: SNB-19
SF-295 = tested on: SF-295
MCF7 = tested on: MCF7
MDA-N = tested on: MDA-N
MDA-MB-231 = tested on: MDA-MB-231
NCI-H460 = tested on: NCI-H460
CCRF-CEM = tested on: CCRF-CEM
TK-10 = tested on: TK-10
SF-539 = tested on: SF-539

Structure (SMILES): COP(=O)(OC)C(O)/C=C/c1ccco1 (stereo not drawn)
- GI50 (IGROV-1): > 100 µM (inactive)
- GI50 (HOP-62): > 100 µM (inactive)
- GI50 (SN12C): > 100 µM (inactive)
- GI50 (LOX IMVI): > 100 µM (inactive)
- GI50 (RXF 393): > 100 µM (inactive)
- GI50 (BT-549): > 100 µM (inactive)
- GI50 (COLO 205): > 100 µM (inactive)
- GI50 (CAKI-1): > 100 µM (inactive)
- GI50 (UACC-257): > 100 µM (inactive)
- GI50 (T47D): > 100 µM (inactive)
- GI50 (OVCAR-5): > 100 µM (inactive)
- GI50 (KM12): > 100 µM (inactive)
- GI50 (U-251): > 100 µM (inactive)
- GI50 (Hs-578T): > 100 µM (inactive)
- GI50 (MOLT-4): > 100 µM (inactive)
- GI50 (A549): > 100 µM (inactive)
- GI50 (OVCAR-3): > 100 µM (inactive)
- GI50 (DU-145): > 100 µM (inactive)
- GI50 (HCT-15): > 100 µM
- GI50 (NCI/ADR-RES): > 100 µM (inactive)
- GI50 (HCT-116): > 100 µM (inactive)
- GI50 (SK-OV-3): > 100 µM (inactive)
- GI50 (SK-MEL-28): > 100 µM (inactive)
- GI50 (HOP-92): > 100 µM (inactive)
- GI50 (SK-MEL-2): > 100 µM (inactive)
- GI50 (SF-268): > 100 µM (inactive)
- GI50 (EKVX): > 100 µM (inactive)
- GI50 (SR): > 100 µM (inactive)
- GI50 (OVCAR-4): > 100 µM (inactive)
- GI50 (M14): > 100 µM (inactive)
- GI50 (NCI-H522): > 100 µM (inactive)
- GI50 (A498): > 100 µM (inactive)
- GI50 (NCI-H226): > 100 µM (inactive)
- GI50 (OVCAR-8): > 100 µM (inactive)
- GI50 (RPMI-8226): > 100 µM (inactive)
- GI50 (UO-31): > 100 µM (inactive)
- GI50 (ACHN): > 100 µM (inactive)
- GI50 (HL-60): > 100 µM (inactive)
- GI50 (K562): > 100 µM (inactive)
- GI50 (PC-3): > 100 µM (inactive)
- GI50 (UACC-62): > 100 µM (inactive)
- GI50 (NCI-H23): > 100 µM (inactive)
- GI50 (MDA-MB-435): > 100 µM (inactive)
- GI50 (Malme-3M): > 100 µM (inactive)
- GI50 (SW-620): > 100 µM (inactive)
- GI50 (HT-29): > 100 µM (inactive)
- GI50 (SK-MEL-5): > 100 µM (inactive)
- GI50 (786-0): > 100 µM (inactive)
- GI50 (SNB-19): > 100 µM (inactive)
- GI50 (SF-295): > 100 µM (inactive)
- GI50 (MCF7): > 100 µM (inactive)
- GI50 (MDA-N): > 100 µM (inactive)

Structure (SMILES): O=C1O[B-](c2ccccc2)(c2ccccc2)[NH+]2CCCC12 (stereo not drawn)
- GI50 (IGROV-1): > 100 µM (inactive)
- GI50 (HOP-62): > 100 µM (inactive)
- GI50 (SN12C): > 100 µM (inactive)
- GI50 (LOX IMVI): > 100 µM (inactive)
- GI50 (RXF 393): 43.5 µM (inactive)
- GI50 (BT-549): 41.8 µM (inactive)
- GI50 (COLO 205): 31.6 µM (inactive)
- GI50 (CAKI-1): 47.4 µM (inactive)
- GI50 (UACC-257): 64.9 µM (inactive)
- GI50 (T47D): 76.9 µM (inactive)
- GI50 (OVCAR-5): > 100 µM (inactive)
- GI50 (KM12): > 100 µM (inactive)
- GI50 (U-251): > 100 µM (inactive)
- GI50 (Hs-578T): 56.6 µM (inactive)
- GI50 (MDA-MB-231): > 100 µM (inactive)
- GI50 (MOLT-4): > 100 µM (inactive)
- GI50 (A549): > 100 µM (inactive)
- GI50 (OVCAR-3): 38.7 µM (inactive)
- GI50 (DU-145): > 100 µM (inactive)
- GI50 (NCI-H460): > 100 µM (inactive)
- GI50 (HCT-15): 59.3 µM
- GI50 (NCI/ADR-RES): 84.7 µM (inactive)
- GI50 (HCT-116): 47 µM (inactive)
- GI50 (SK-OV-3): > 100 µM (inactive)
- GI50 (SK-MEL-28): 99.5 µM (inactive)
- GI50 (HOP-92): 16.7 µM (inactive)
- GI50 (SK-MEL-2): 97.7 µM (inactive)
- GI50 (SF-268): > 100 µM (inactive)
- GI50 (CCRF-CEM): > 100 µM (inactive)
- GI50 (EKVX): > 100 µM (inactive)
- GI50 (SR): > 100 µM (inactive)
- GI50 (OVCAR-4): > 100 µM (inactive)
- GI50 (M14): 40.5 µM (inactive)
- GI50 (NCI-H522): 64.7 µM (inactive)
- GI50 (TK-10): 44.4 µM (inactive)
- GI50 (A498): 55.7 µM (inactive)
- GI50 (NCI-H226): 49 µM (inactive)
- GI50 (OVCAR-8): 74 µM (inactive)
- GI50 (RPMI-8226): 72.8 µM (inactive)
- GI50 (UO-31): 34.6 µM (inactive)
- GI50 (ACHN): 75.7 µM (inactive)
- GI50 (SF-539): 55.6 µM (inactive)
- GI50 (HL-60): > 100 µM (inactive)
- GI50 (K562): 67.6 µM (inactive)
- GI50 (PC-3): 35 µM (inactive)
- GI50 (UACC-62): > 100 µM (inactive)
- GI50 (NCI-H23): 74 µM (inactive)
- GI50 (MDA-MB-435): > 100 µM (inactive)
- GI50 (Malme-3M): 51.1 µM (inactive)
- GI50 (SW-620): 63.4 µM (inactive)
- GI50 (HT-29): > 100 µM (inactive)
- GI50 (SK-MEL-5): 33 µM (inactive)
- GI50 (786-0): 50.7 µM (inactive)
- GI50 (SNB-19): > 100 µM (inactive)
- GI50 (SF-295): > 100 µM (inactive)
- GI50 (MDA-N): 85.1 µM (inactive)
